What all share (type): functional
For test [1], the system named is P388. Briefly: In vivo cytotoxicity against mouse P388 cells at 12.5 mg/kg relative to control.
Test [2] in a line: Cytotoxicity against mouse 9PS cells. To be noted: read-out: ED50 (the source's name).
Test [3] deals with P388. Briefly: In vivo cytotoxicity against mouse P388 cells at 25 mg/kg relative to control.
In test [4] the test system is M5076. Briefly: In vivo cytotoxicity against mouse M5076 cells at 0.38 to 3 mg/kg relative to control. Particulars: dose mg/kg 0.38-3.
Test [5] deals with P388. As to the kind of experiment: In vivo cytotoxicity against mouse P388 cells at 0.75 to 6 mg/kg relative to control. Particulars: dose mg/kg 0.75-6.
Test [6] deals with M5076. Briefly: In vivo antitumor activity against mouse M5076 cells assessed as life extension at 0.38 to 3 mg/kg. To be noted: dose mg/kg 0.38-3.
In test [7] the test system is P388. As to the kind of experiment: In vivo antitumor activity against mouse P388 cells assessed as life extension at 0.75 to 12.5 mg/kg. To be noted: dose mg/kg 0.75-12.5.

In brackets after ≈: the same amount, converted by molar mass.

With `O=C1N[C@@H]2C(=C[C@H](O)[C@@H](O)[C@H]2O)c2cc3c(cc21)OCO3`, the T/C in test [1] and in test [3] was 161 each time. Also, the EC50 in test [2] amounted to 0.02 µg/mL (≈ 0.0687 µM).

On to `O=C1N[C@H]2[C@H](O)[C@H](O)[C@@H](O)[C@H](O)[C@@H]2c2cc3c(c(O)c21)OCO3` [PANCRATISTATIN], for which the values for the T/C in test [4], in test [1] and in test [5] were 153, 206 and 138, respectively. Moreover, the values for the Activity in test [6] and in test [7] were 53% and 38%, respectively. Further, the EC50 in test [2] is 0.01 µg/mL (≈ 0.0307 µM).

(Values after ChEMBL document CHEMBL1149019, “Antineoplastic agents, 120. Pancratium littorale” (1986).)
